This is an account of results in patent US20120245137A1 (Zalicus Pharmaceuticals Ltd., priority 2009, published 2012).

Test [1] concerns the target human α1H T-type channels (Homo sapiens, UniProt O95180). The experiment in a line: T-type calcium channel block, whole cell patch clamp, α1H. The class given is cell-based. The conditions noted are these: HEK cells stably expressing human α1H; mainly non-inactivated protocol; values above 10,000 nM represented as 10000. The gist of the method:
(§1)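 Cells are stable HEK 293 lines carrying human α1G or α1H channels, patched in whole-cell mode. Resting block comes from the non-inactivated pre-pulse; voltage-dependent block from the inactivated protocol.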

Test [2] addresses human α1G T-type channels (Homo sapiens, UniProt O43497). Kind of test: T-type calcium channel block, whole cell patch clamp, α1G. The test is classed as cell-based. Particulars: HEK cells stably expressing human α1G; mainly non-inactivated protocol; values above 10,000 nM represented as 10000. The gist of the method: as §1

human α1G T-type channels, sequence (O43497 whole entry): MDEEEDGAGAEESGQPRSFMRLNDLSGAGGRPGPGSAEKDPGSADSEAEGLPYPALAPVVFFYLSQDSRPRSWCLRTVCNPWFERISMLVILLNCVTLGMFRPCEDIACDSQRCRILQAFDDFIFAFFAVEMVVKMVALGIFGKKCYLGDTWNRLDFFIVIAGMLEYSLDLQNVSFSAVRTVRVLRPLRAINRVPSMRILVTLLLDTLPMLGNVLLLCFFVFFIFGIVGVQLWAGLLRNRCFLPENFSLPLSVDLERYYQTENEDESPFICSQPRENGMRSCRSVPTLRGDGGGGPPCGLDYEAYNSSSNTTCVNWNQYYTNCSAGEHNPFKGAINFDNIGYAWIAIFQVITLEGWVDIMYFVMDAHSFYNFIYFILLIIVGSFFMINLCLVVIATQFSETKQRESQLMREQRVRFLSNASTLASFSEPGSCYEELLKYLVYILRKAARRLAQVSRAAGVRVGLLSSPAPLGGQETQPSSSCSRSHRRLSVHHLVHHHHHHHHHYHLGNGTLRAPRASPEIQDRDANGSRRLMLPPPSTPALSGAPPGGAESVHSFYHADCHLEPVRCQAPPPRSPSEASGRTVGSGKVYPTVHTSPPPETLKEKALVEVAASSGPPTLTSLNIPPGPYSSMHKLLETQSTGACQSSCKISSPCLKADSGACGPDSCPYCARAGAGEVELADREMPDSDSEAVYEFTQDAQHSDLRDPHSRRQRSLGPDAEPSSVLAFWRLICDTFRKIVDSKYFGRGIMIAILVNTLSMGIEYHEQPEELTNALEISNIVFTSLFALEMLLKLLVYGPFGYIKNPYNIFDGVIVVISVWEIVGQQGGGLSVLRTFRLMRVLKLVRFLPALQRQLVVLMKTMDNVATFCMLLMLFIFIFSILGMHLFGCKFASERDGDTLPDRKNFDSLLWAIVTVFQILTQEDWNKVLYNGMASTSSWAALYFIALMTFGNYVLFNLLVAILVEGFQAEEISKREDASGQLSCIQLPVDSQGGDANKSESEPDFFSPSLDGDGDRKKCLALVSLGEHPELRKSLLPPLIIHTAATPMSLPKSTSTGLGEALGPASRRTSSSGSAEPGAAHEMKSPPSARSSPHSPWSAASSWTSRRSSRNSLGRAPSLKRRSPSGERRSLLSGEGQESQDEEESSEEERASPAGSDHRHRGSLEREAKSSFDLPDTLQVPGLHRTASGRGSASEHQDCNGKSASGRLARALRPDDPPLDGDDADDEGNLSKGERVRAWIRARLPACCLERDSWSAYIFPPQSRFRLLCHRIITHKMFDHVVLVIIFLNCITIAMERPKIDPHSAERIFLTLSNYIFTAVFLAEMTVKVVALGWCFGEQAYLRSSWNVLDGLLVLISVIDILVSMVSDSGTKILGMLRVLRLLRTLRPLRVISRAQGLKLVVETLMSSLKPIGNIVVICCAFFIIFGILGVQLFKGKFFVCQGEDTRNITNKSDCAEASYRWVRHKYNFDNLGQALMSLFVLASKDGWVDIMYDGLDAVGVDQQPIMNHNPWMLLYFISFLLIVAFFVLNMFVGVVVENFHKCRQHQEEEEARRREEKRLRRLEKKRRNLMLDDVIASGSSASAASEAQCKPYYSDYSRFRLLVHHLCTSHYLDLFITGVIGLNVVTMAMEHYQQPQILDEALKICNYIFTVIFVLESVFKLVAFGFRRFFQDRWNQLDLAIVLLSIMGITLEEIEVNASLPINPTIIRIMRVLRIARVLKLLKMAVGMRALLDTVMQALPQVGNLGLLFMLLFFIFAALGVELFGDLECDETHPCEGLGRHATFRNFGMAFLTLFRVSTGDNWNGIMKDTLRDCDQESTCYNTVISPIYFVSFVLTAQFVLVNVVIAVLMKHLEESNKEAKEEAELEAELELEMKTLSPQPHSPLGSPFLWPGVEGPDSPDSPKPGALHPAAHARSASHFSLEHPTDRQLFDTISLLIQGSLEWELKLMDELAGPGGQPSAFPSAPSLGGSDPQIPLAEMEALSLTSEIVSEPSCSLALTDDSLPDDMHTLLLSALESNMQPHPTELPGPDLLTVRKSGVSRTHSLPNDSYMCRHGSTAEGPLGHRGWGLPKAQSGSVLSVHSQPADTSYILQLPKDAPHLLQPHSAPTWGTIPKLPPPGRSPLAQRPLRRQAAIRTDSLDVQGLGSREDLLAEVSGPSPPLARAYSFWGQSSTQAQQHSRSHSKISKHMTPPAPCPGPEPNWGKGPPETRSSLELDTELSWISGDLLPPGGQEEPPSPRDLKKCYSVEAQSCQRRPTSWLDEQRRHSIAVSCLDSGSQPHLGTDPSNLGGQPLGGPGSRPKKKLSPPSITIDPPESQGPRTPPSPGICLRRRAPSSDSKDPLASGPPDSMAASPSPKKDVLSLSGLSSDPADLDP
human α1H T-type channels, sequence (O95180 whole entry): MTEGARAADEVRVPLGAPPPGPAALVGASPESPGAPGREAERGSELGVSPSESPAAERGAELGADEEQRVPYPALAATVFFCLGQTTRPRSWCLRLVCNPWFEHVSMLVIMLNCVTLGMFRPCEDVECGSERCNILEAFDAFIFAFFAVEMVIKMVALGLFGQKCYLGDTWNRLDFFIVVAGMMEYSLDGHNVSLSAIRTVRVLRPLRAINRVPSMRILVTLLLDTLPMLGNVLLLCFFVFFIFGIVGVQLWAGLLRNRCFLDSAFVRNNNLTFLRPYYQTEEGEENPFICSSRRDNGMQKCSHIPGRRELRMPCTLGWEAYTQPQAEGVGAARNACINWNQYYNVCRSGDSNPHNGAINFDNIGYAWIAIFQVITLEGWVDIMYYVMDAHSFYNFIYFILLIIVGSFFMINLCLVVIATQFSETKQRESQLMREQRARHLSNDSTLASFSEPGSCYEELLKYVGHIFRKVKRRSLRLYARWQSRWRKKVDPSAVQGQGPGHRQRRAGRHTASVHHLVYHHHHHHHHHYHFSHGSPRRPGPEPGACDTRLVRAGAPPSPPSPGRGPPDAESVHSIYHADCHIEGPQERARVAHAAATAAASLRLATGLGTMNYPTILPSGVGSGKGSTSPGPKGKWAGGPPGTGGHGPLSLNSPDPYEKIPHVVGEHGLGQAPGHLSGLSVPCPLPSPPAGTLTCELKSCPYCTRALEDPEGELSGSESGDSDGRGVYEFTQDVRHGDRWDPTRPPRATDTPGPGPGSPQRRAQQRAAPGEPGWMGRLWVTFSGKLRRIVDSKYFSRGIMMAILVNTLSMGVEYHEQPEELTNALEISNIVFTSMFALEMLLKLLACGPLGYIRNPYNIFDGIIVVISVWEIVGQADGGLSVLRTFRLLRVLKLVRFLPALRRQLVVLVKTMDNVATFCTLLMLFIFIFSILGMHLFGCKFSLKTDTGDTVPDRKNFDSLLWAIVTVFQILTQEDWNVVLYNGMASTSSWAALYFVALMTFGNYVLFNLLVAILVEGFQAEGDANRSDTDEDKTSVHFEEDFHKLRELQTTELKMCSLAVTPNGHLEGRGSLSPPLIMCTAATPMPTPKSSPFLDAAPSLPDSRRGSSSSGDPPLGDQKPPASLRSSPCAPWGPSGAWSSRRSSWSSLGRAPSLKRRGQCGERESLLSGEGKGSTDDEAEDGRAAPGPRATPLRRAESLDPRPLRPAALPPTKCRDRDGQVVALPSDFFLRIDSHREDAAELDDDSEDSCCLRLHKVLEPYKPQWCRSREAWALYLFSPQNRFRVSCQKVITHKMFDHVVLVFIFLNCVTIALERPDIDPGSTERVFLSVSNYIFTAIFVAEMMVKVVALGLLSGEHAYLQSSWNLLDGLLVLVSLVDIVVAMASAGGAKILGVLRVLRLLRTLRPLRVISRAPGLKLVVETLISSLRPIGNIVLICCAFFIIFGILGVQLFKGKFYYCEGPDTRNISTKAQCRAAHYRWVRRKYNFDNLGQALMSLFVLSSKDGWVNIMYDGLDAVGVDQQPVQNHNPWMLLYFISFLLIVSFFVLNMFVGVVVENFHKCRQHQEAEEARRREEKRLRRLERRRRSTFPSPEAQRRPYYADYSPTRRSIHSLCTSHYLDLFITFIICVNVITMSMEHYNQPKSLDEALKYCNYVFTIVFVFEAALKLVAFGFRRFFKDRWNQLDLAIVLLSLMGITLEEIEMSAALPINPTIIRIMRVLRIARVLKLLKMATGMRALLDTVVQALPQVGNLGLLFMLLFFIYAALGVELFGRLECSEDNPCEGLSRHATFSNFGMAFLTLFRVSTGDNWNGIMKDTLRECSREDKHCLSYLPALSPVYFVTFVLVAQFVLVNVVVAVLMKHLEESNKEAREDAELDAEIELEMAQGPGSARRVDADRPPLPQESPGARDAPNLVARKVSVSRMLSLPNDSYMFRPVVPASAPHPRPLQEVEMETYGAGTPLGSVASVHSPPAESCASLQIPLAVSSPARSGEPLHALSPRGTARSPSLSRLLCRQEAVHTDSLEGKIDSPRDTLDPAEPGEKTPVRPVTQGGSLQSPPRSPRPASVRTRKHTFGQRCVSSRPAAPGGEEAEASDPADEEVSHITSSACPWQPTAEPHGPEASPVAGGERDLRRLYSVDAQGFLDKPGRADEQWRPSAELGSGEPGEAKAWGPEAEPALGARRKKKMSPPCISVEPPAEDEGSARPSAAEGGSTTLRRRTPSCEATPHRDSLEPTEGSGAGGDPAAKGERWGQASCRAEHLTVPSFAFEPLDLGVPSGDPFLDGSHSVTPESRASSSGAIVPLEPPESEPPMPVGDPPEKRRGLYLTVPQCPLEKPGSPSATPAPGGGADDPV

Turning to `CC(C)(CN[C@H]1CC[C@@H](C(F)(F)F)CC1)S(=O)(=O)c1cccc(C(F)(F)F)c1` [Compound 519, (1S,4S)-N-(2-methyl-2-(3-(trifluoromethyl)phenylsulfonyl)propyl)-4-(trifluoromethyl) cyclohexanamine], the IC50 in test [1] amounted to 3280 nM; in test [2], 550 nM.

For the compound `CN(C(=O)CNCCC(C)(C)S(=O)(=O)c1cccc(C(F)(F)F)c1)C(C)(C)C` [Compound 473, N-tert-butyl-N-methyl-2-(3-methyl-3-(3-(trifluoromethyl)phenylsulfonyl)butylamino) acetamide], the IC50 in test [1] was 9280 nM; in test [2] it was 680 nM.

Regarding `CC(C)(C)c1ccc(S(=O)(=O)NCC(C)(C)S(=O)(=O)c2cccc(C(F)(F)F)c2)cc1` [Compound 499, 4-tert-butyl-N-(2-methyl-2-(3-(trifluoromethyl)phenylsulfonyl)propyl) benzenesulfonamide], the IC50 in test [1] was found to be 1010 nM; in test [2], 90 nM.

With `CC(C)(CCNC(=O)c1ncc(C(F)(F)F)cc1S(C)(=O)=O)S(=O)(=O)c1cccc(C(F)(F)F)c1` [Compound 523, N-(3-methyl-3-(3-(trifluoromethyl)phenylsulfonyl)butyl)-3-(methylsulfonyl)-5-(trifluorornethyl)picolinamide], the results for the IC50 in test [1] and in test [2] were greater than 10000 nM and 560 nM, respectively.

With `O=C(N[C@H]1CC[C@H](CS(=O)(=O)c2cccc(C(F)(F)F)c2)CC1)c1cc(C(F)(F)F)n[nH]1` [Compound 112, 3-(trifluoromethyl)-N-((lR,4R)-4-((3-(trifluoromethyI)phenylsulfonyl)methyl)cyclohexyl)-1H-pyrazole-5-carboxamide], the 50% inhibitory concentration (IC50) in test [1] is 8360 nM; in test [2], greater than 10000 nM.

Turning to `CC(C)(CNS(=O)(=O)c1cccc(C(F)(F)F)c1)S(=O)(=O)c1cccc(C(F)(F)F)c1` [Compound 495, N-(2-methyl-2-(3-(trifluoromethyl)phenylsulfonyl)propyl)-3-(trifluoromethyl) benzenesulfonamide], the IC50 in test [1] came out at 2050 nM; in test [2], 190 nM.

Turning to `CC(C)(CCNC(=O)c1cc(F)cc(Cl)c1)S(=O)(=O)c1cccc(C(F)(F)F)c1` [Compound 465, 3-chloro-5-tluoro-N-(3-methyl-3-(3-(trifluoromethyl)phenylsulfonyl)butyl) benzamide], the IC50 in test [1] was 960 nM; in test [2], 50 nM.

For the compound `CC(C)(CNC(=O)c1ccc(C(F)(F)F)cc1S(C)(=O)=O)S(=O)(=O)c1cccc(C(F)(F)F)c1` [Compound 474, N-(2-methyl-2-(3-(trifluoromethyl)phenylsulfonyl)propyl)-2-(methylsulfonyl)-4-(tritluoromethyl)benzamide], the figures for the IC50 in test [1] and in test [2] were greater than 10000 nM and 560 nM, respectively.

As to “1-(trifluoromethyl)-N-((1R,4R)-4- ((3- (trifluoromethyl)phenylsulfonyl) methyl)cyclohexyl) cyclobutanecarboxamide [Compound 109]”, the IC50 in test [1] and in test [2] was greater than 10000 nM throughout.

Turning to `CC(C)(CNC(=O)c1nc2cc(F)ccc2[nH]1)S(=O)(=O)c1cccc(C(F)(F)F)c1` [Compound 478, 5-fluoro-N-(2-methyl-2-(3-(trifluoromethyl)phenylsulfonyl)propyl)-1H-benzo[d]imidazole-2-carboxamide], the IC50 in test [1] stood at 5340 nM; in test [2], 270 nM.

For `CN(Cc1ccc(F)c(C(F)(F)F)c1)C(=O)C(C)(C)S(=O)(=O)c1cccc(C(F)(F)F)c1` [Compound 454, N-(4-fluoro-3-(trifluoromethyl)benzyl)-N,2-dimethyl-2-(3-(trifluoromethyl)phenylsulfonyl)propanamide], the IC50 in test [1] came out at 3480 nM; in test [2], 610 nM.

For `CC(C)(CNC(=O)c1cn2ccc(C(F)(F)F)cc2n1)S(=O)(=O)c1cccc(C(F)(F)F)c1` [Compound 505, N-(2-methyl-2-(3-(trifluoromethyl)phenylsulfonyl)propyl)-7-(trifluoromethyl)imidazo[1,2-a]pyridine-2-carboxamide], the IC50 in test [1] amounted to 9930 nM; in test [2], 610 nM.

As to `CC(C)(CCS(=O)(=O)c1cccc(C(F)(F)F)c1)S(=O)(=O)c1cccc(C(F)(F)F)c1` [Compound 460], the figures for the IC50 in test [1] and in test [2] were greater than 10000 nM and 100 nM, respectively.

Regarding `CN(CCc1ccc(F)cc1)C(=O)C(C)(C)S(=O)(=O)c1cccc(C(F)(F)F)c1` [Compound 452, N-(4-fluorophenethyl)-N,2-dimethyl-2-(3-(trifluoromethyl)phenylsulfonyl)propanamide], the IC50 in test [1] came to 9810 nM; in test [2] it was 570 nM.

For `COc1c(C)cc(C(=O)NCC(C)(C)S(=O)(=O)c2cccc(C(F)(F)F)c2)cc1C` [Compound 481, 4-methoxy-3,5-dimethyl-N-(2-methyl-2-(3-(trifluoromethyl)phenylsulfonyl)propyl) benzamide], the results for the IC50 in test [1] and in test [2] were greater than 10000 nM and 720 nM, respectively.

On to `CC(C)(CNC(=O)c1nc2cc(C(F)(F)F)ccc2[nH]1)S(=O)(=O)c1cccc(C(F)(F)F)c1` [Compound 457, N-(2-methyl-2-(3-(trifluoromethyl)phenylsulfonyl)propyl)-5-(trifluoromethyl)-1H-benzo[d]imidazole-2-carboxamide], for which the IC50 in test [1] was 1200 nM; in test [2], 560 nM.

Take `CC(C)(CCNC(=O)c1cc(C(F)(F)F)nc(S(C)(=O)=O)c1)S(=O)(=O)c1cccc(C(F)(F)F)c1` [Compound 526, N-(3-methyl-3-(3-(trifluoromethyl)phenylsulfonyl)butyl)-2-(methylsulfonyl)-6-(trifluoromethyl)isonicotinamide]: the IC50 came to 2930 nM in test [1] and 240 nM in test [2].

Consider `CC(C)(CNC(=O)c1ccc(Cl)c(Cl)c1)S(=O)(=O)c1cccc(C(F)(F)F)c1` [Compound 479, 3,4-dichloro-N-(2-methyl-2-(3-(trifluoromethyl)phenylsulfonyl)propyl) benzamide], for which the values for the IC50 in test [1] and in test [2] were 2090 nM and 900 nM, respectively.

For `CC(C)(CNS(=O)(=O)c1ccccc1C(F)(F)F)S(=O)(=O)c1cccc(C(F)(F)F)c1` [Compound 494, N-(2-methyl-2-(3-(trifluoromethyl)phenylsulfonyl)propyl)-2-(trifluoromethyl) benzenesulfonamide], the IC50 in test [1] stood at 3530 nM; in test [2], 400 nM.

`CC(C)(CCNC(=O)c1ccc(Cl)cc1S(C)(=O)=O)S(=O)(=O)c1cccc(C(F)(F)F)c1` [Compound 529, 4-chloro-N-(3-methyl-3-(3-(trifluoromethyl)phenylsulfonyl)butyl)-2-(methylsulfonyl)benzamide]: the half-inhibitory concentration (IC50) in test [1] came out at 9690 nM; in test [2] it was 780 nM.

Consider `O=C(N[C@H]1CC[C@H](CS(=O)(=O)c2cccc(C(F)(F)F)c2)CC1)c1cc(F)cc(Cl)c1` [Compound 101, 3-chloro-5-fluoro-N-((1R,4R)-4-((3-(trifluoromethyl)phenylsulfonyl)methyl)cyclohexyl)benzamide], for which the IC50 was 3500 nM in test [1] and 3670 nM in test [2].

In the case of `CC(C)(CCS(=O)(=O)c1cc(Cl)cc(Cl)c1)S(=O)(=O)c1cccc(C(F)(F)F)c1` [Compound 461, 1,3-dichloro-5-(3-methyl-3-(3-(trifluoromethyl)phenylsulfonyl)butylsulfonyl)benzene], the IC50 in test [1] is greater than 10000 nM; in test [2] it was 190 nM.
